Where a name gives a salt, the structure may show the parent alone. Blank lines part the entries; values can stand above or below the molecule they belong to.
Experiments:
[1] = HPLC impurity and stability of dasatinib lauryl sulfate salts and capsules (Example 54); assay type: physicochemical
Experimental: The RRT was determined using HPLC with the following parameters:
The mobile phase A was 0.05 M aqueous Ammonium Acetate (pH 5.25)/Acetonitrile/Methanol in a volume ratio of 90/5/5.
The mobile phase B was 0.05 M aqueous Ammonium Acetate (pH 5.25)/Acetonitrile/Methanol in a volume ratio of 10/85/5.
Additional methanol is added so the test sample is approximately 0.20 mg of dasatinib per mL.

[2] = HPLC impurity and stability of nilotinib lauryl sulfate salts and dosage forms (Example 62); assay type: physicochemical
Experimental: Mobile phase A was 0.25% Formic Acid/acetonitrile in a volume ratio of 90/10.
Mobile phase B was 0.1% Formic Acid/acetonitrile in a volume ratio of 10/90.
Additional diluent is added so the test sample is approximately 0.10 mg of nilotinib per mL.
The test sample of the dosage forms prepared in Examples 60 F and 60 G were prepared by the following procedure:
1. Cut the tip of the capsule with scissors and squeeze the contents from the hole into the 100-mL volumetric flask. Cut the capsule into two parts and add the parts to the flask. Add 80% full of ethanol, sonicate for 10 minutes and stir at 800 rpm for 30 minutes to dissolve the contents completely.
2. Dilute to volume with ethanol, mix well by inverting the flask NLT 10 times
3. Pipette 3 ml into 25-mL amber volumetric flask and add ethanol to volume, mix well by inverting the flask NLT 10 times. The test sample is approximately 0.096 mg of nilotinib per mL.
The nilotinib dilauryl sulfate salt prepared in Example 26 were tested for impurities and stability using HPLC with the following parameters:
The test sample of the nilotinib dilauryl sulfate salt prepared in Example 26 were prepared by weighing about 10 mg of nilotinib dilauryl sulfate (equivalent to 5 mg of nilotinib) and transfer into a 25-mL amber volumetric flask, adding 20 mL of diluent (ethanol), sonicating for about 5 minutes and stirring at 800 rpms for about 5 minutes until the nilotinib dilauryl sulfate is dissolved. Additional diluent is added so the test sample is approximately 0.20 mg of nilotinib per mL.

[3] = solubility of nilotinib salts, HPLC (Example 38A); assay type: physicochemical; details: 37 °C, pH 1, simulated gastric fluid, thermodynamic from solid
Experimental: (§1) The reaction mass was filtered and the filtrate solution was measured by HPLC.

physchem = details: 37 °C, pH 1, simulated gastric fluid, thermodynamic from solid
Experimental: as §1

[4] = solubility of dasatinib salts at 37° C., HPLC (Example 47A); assay type: physicochemical; details: for solubility: thermodynamic from solid
Experimental: as §1

[5] = solubility of nintedanib salts at room temperature, HPLC (Example 25A); assay type: physicochemical; details: thermodynamic from solid
Experimental: as §1

[6] = 60° C./75% R.H. 1 week, HDPE bottle, HPLC Inertsil ODS-3 (NLB-2LS method)
[7] = Room temp., HPLC Inertsil ODS-3 (NLB-2LS method)

Compound: CCCCCCCCCCCCOS(=O)(=O)O.Cc1nc(Nc2ncc(C(=O)Nc3c(C)cccc3Cl)s2)cc(N2CCN(CCO)CC2)n1 [Example 12, dasatinib monolauryl sulfate]
impurity at RRT 0.96 ([1]; 40° C./75% R.H., 1 Month): 0.09 | impurity at RRT 1.10 (2-Chloro-6-methylaniline) ([1]; 40° C./75% R.H., 1 Month): 0.04 | impurity at RRT 1.31 (DAS-6) ([1]; 40° C./75% R.H., 1 Month): 0.02 | impurity at RRT 0.87 ([1]; 40° C./75% R.H., 3 Months): 0.02 | impurity at RRT 0.94 (DAS PIP) ([1]; 40° C./75% R.H., 3 Months): 0.03 | impurity at RRT 0.96 ([1]; 40° C./75% R.H., 3 Months): 0.10 | impurity at RRT 1.10 (2-Chloro-6-methylaniline) ([1]; 40° C./75% R.H., 3 Months): 0.03 | impurity at RRT 1.31 (DAS-6) ([1]; 40° C./75% R.H., 3 Months): 0.03 | impurity at RRT 0.87 ([1]; Initial): 0.02 | impurity at RRT 0.94 (DAS PIP) ([1]; Initial): 0.02 | impurity at RRT 0.96 ([1]; Initial): 0.09 | impurity at RRT 1.10 (2-Chloro-6-methylaniline) ([1]; Initial): 0.02 | impurity at RRT 1.31 (DAS-6) ([1]; Initial): 0.02

Compound: CCCCCCCCCCCCOS(=O)(=O)O.CCCCCCCCCCCCOS(=O)(=O)O.Cc1nc(Nc2ncc(C(=O)Nc3c(C)cccc3Cl)s2)cc(N2CCN(CCO)CC2)n1 [Example 13, dasatinib dilauryl sulfate]
impurity at RRT 0.87 ([1]; 40° C./75% R.H., 1 Month): 0.06 | impurity at RRT 0.94 (DAS PIP) ([1]; 40° C./75% R.H., 1 Month): 0.09 | impurity at RRT 0.96 ([1]; 40° C./75% R.H., 1 Month): 0.14 | impurity at RRT 1.31 (DAS-6) ([1]; 40° C./75% R.H., 1 Month): 0.04 | impurity at RRT 0.87 ([1]; Initial): 0.06 | impurity at RRT 0.94 (DAS PIP) ([1]; Initial): 0.09 | impurity at RRT 0.96 ([1]; Initial): 0.13 | impurity at RRT 1.31 (DAS-6) ([1]; Initial): 0.02

Compound: CCCCCCCCCCCCOS(=O)(=O)O.CCCCCCCCCCCCOS(=O)(=O)O.Cc1cn(-c2cc(NC(=O)c3ccc(C)c(Nc4nccc(-c5cccnc5)n4)c3)cc(C(F)(F)F)c2)cn1 [Example 26, nilotinib dilauryl sulfate]
impurity at RRT 0.81 [2, 6]: 0.05% | impurity at RRT 1.09 [2, 6]: 0.07% | impurity at RRT 1.16 [2, 6]: 0.11% | impurity at RRT 1.28 [2, 6]: 0.08% | impurity at RRT 1.09 [2, 7]: 0.07% | impurity at RRT 1.16 [2, 7]: 0.10% | impurity at RRT 1.28 [2, 7]: 0.02%

Compound: CCCCCCCCCCCCOS(=O)(=O)O.Cc1cn(-c2cc(NC(=O)c3ccc(C)c(Nc4nccc(-c5cccnc5)n4)c3)cc(C(F)(F)F)c2)cn1 [Example 46, nilotinib monolauryl sulfate]
impurity at RRT 1.16 ([2]; 60° C./75% R.H. 2 weeks, HDPE bottle, HPLC Xterra RP18 (NLB-1LS method)): 0.07% | impurity at RRT 1.16 ([2]; Room temp., HPLC Xterra RP18 (NLB-1LS method)): 0.07%

Compound: Cc1cn(-c2cc(NC(=O)c3ccc(C)c(Nc4nccc(-c5cccnc5)n4)c3)cc(C(F)(F)F)c2)cn1 [Nilotinib HCl]
solubility [3]: 3800 µg/mL

solubility (physchem): 3360 µg/mL
Compound: Cc1ccc(Nc2nccc(N(C)c3ccc4c(C)n(C)nc4c3)n2)cc1S(N)(=O)=O [Pazopanib Hydrochloride, pazopanib hydrochloride]

aqueous solubility, pH dependence [4]: varied with pH | solubility ([4]; aqueous buffer, 0.05M acetate buffer, pH = 4.5): 86.9 µg/mL | solubility ([4]; aqueous buffer, 0.05M phosphate buffer, pH = 6.8): 0.18 µg/mL | solubility ([4]; simulated gastric fluid, 0.1N HCl, pH = 1.0): 654 µg/mL
Compound: Cc1nc(Nc2ncc(C(=O)Nc3c(C)cccc3Cl)s2)cc(N2CCN(CCO)CC2)n1 [dasatinib]

solubility ([5]; aqueous buffer, 0.05 M acetate buffer, pH = 4.5): 6260 µg/mL | solubility ([5]; aqueous buffer, 0.05 M phosphate buffer, pH = 6.8): 2.2 µg/mL | solubility ([5]; simulated gastric fluid, 0.1 N HCl, pH = 1.0): 107000 µg/mL
Compound: COC(=O)c1ccc2c(c1)NC(=O)/C2=C(\Nc1ccc(N(C)C(=O)CN2CCN(C)CC2)cc1)c1ccccc1 [nintedanib esylate]
